Test results from US20040086901A1, “Database for analyzing gene function and method of analyzing gene function by dspa” (priority 2000, published 2004).

What was measured:
Type in all cases: cell-based, mouse
[1] = tested on: NIH3T3 cells overexpressing ERK-DN; assay: MTT cell viability, ERK-DN overexpressing cells vs parental line; conditions: ERK-DN high-expressing cells / parental cell line, 3 to 4 days
Description: (§1) With regard to the function-known genes, the genes shown in the left column of Table 2 were used. With regard to the drugs, those shown in Table 1 were dissolved in DMSO to an extent of 100-fold of the maximum concentration for the search of the drugs and used. With regard to the cells, incubated NIH3T3 or ras-NIH3T3 cells were used.
(§2) Full-length cDNA of each function-known genes was incorporated into an expression vector (pRc-CMV, etc.) and transfected into NIH3T3 cells by a common method. Transformed cells were isolated using the resistance to G-418 as an index and the expression of the transfected gene in each cell was investigated by Western blotting method to select a highly expressing line.
(§3) Cell viabilities were measured according to the following procedures.
(§4) 1) From the 2nd to the 11th rows of a 96-well plate were filled with DMEM (50 μl). The 12th row was filled with 100 μl of DMEM.
(§5) 2) The 1st row was filled with 98 μl of DMEM.
(§6) 3) Drugs (2 μl each) were added into the 1st row.
(§7) 4) Continuous double-dilution was conducted from the 1st to the 9th rows. Fifty μl were taken out from the 9th row and discarded. The plate was preserved in a CO2 incubator.
(§8) 5) Cells (each high-expressing cells and the parental cell line) were detached from the medium using a trypsin solution, suspended in 10% CS-DMEM and transferred to a test tube and cell numbers (cell/ml) were counted.
(§9) 6) The cells were diluted to a concentration of 1×10^5 cells/ml, and 50 μl of the cell suspension were added to the 1st to the 11th rows of the plate followed by gently stirring.
(§10) 7) The plate was transferred to the CO2 incubator and incubated for 3 to 4 days.
(§11) 8) MTT (5 mg/ml in PBS) (10 μl) was added to the 1st to the 12th rows of the plate and incubated in the CO2 incubator at 37° C. for 4 hours.
(§12) 9) A reaction stop solution (0.04N HCl in isopropanol) (150 μl) was added followed by mixing well and being allowed to stand at room temperature for about 2 hours.
(§13) 10) Coloration of formazan which was a metabolite of the MTT dye was measured using a microplate reader. The measurement wavelength was 574 nm and the reference wavelength was 655 nm. The 10th and the 11th rows of the plate were 100% controls and the 12th row was a 0% control.
(§14) As an index for the sensitivity of highly gene-expressing cells and the parental cell line to various drugs, each of the IC40 values thereof was specified and ratios of the IC40 values were calculated. […] After that, logarithmic values of ratios of IC40 values were calculated from each gene.

[2] = tested on: NIH3T3 cells overexpressing RhoA-DN; assay: MTT cell viability, RhoA-DN overexpressing cells vs parental line; conditions: RhoA-DN high-expressing cells / parental cell line, 3 to 4 days
Description: as §1, §2, §3, §4, §5, §6, §7, §8, §9, §10, §11, §12, §13, §14

[3] = tested on: NIH3T3 cells overexpressing C/EBPa; assay: MTT cell viability, C/EBPa overexpressing cells vs parental line; conditions: C/EBPa high-expressing cells / parental cell line, 3 to 4 days
Description: as §1, §2, §3, §4, §5, §6, §7, §8, §9, §10, §11, §12, §13, §14

[4] = tested on: NIH3T3 cells overexpressing C/EBPb; assay: MTT cell viability, C/EBPb overexpressing cells vs parental line; conditions: C/EBPb high-expressing cells / parental cell line, 3 to 4 days
Description: as §1, §2, §3, §4, §5, §6, §7, §8, §9, §10, §11, §12, §13, §14

[5] = tested on: NIH3T3 cells overexpressing Cip-1; assay: MTT cell viability, Cip-1 overexpressing cells vs parental line; conditions: Cip-1 high-expressing cells / parental cell line, 3 to 4 days
Description: as §1, §2, §3, §4, §5, §6, §7, §8, §9, §10, §11, §12, §13, §14

[6] = tested on: NIH3T3 cells overexpressing CaMKIIa-Active; assay: MTT cell viability, CaMKIIa-Active overexpressing cells vs parental line; conditions: CaMKIIa-Active high-expressing cells / parental cell line, 3 to 4 days
Description: as §1, §2, §3, §4, §5, §6, §7, §8, §9, §10, §11, §12, §13
(§15) As an index for the sensitivity of highly gene-expressing cells and the parental cell line to various drugs, each of the IC40 values thereof was specified and ratios of the IC40 values were calculated. FIG. 2 and FIG. 3 are the examples where ratios of IC40 values were calculated from a curve showing the dependency on the concentration of the chemical versus the viability. After that, logarithmic values of ratios of IC40 values were calculated from each gene.

[7] = tested on: NIH3T3 cells overexpressing HSP9O; assay: MTT cell viability, HSP9O overexpressing cells vs parental line; conditions: HSP9O high-expressing cells / parental cell line, 3 to 4 days
Description: as §1, §2, §3, §4, §5, §6, §7, §8, §9, §10, §11, §12, §13, §15

| Compound | logarithmic value of ratio of IC40 values [1] | logarithmic value of ratio of IC40 values [2] | logarithmic value of ratio of IC40 values [3] | logarithmic value of ratio of IC40 values [4] | logarithmic value of ratio of IC40 values [5] | logarithmic value of ratio of IC40 values [6] | logarithmic value of ratio of IC40 values [7] |
| --- | --- | --- | --- | --- | --- | --- | --- |
| COc1ccc2c(c1)CC[C@@H]1[C@@H]2CC[C@]2(C)[C@@H](NCCCCCCN3C(=O)C=CC3=O)CC[C@@H]12 [U73122] | 0.00 | −0.35 | 0.00 | 0.10 | 0.08 | 0.00 | 0.18 |
| CNc1ccc2oc(C[C@H]3O[C@@]4(CC[C@H]3C)O[C@H]([C@H](C)C(=O)c3ccc[nH]3)[C@H](C)C[C@H]4C)nc2c1C(=O)O [A23187] | 0.00 | 0.03 | 0.00 | 0.25 | 0.04 | 0.18 | 0.28 |
| ICE inhibitor-III [ICEin-3] | 0.00 | 0.00 | −0.46 | 0.35 | 0.08 | 0.22 | 0.22 |
| CO[C@H]1[C@@H](OC)C[C@H](C)[C@@H](OC)C2=CC(=O)C=C(NC(=O)/C(C)=C/C=C\[C@H](OC)[C@@H](OC(N)=O)/C(C)=C/[C@@H]1C)C2=O [HMA, herbimycin A] | 0.00 | −0.10 | 0.00 | 0.45 | −0.30 | 0.51 | 0.40 |
| C=C1[C@@H](O)[C@@H]2O[C@]3(CC[C@H](/C=C/[C@@H](C)[C@@H]4CC(C)=C[C@@]5(O[C@H](C[C@@](C)(O)C(=O)O)CC[C@H]5O)O4)O3)CC[C@H]2O[C@@H]1[C@@H](O)C[C@H](C)[C@H]1O[C@@]2(CCCCO2)CC[C@H]1C [OA, okadaic acid] | 0.00 | 0.00 | 0.12 | 0.21 | −0.15 | 0.14 | 0.07 |
